Results reported in patent publication US8569327B2, “Phenanthroindolizidine derivative and NFκB inhibitor containing same as active ingredient” (Kabushiki Kaisha Yakult Honsha, priority 2008, dated 2013).

Legend:
[1] = test system: human non-small cell lung cancer A549 cells; experiment: Inhibitory action on the proliferation of A549 cells; type: cell-based; conditions: 96 hours, TetraColor ONE; for IC50: Homo sapiens, A549
Procedure: (§1) The action of the phenanthroindolizidine alkaloid compound of the present invention on the proliferation of human colon cancer SW480 cells, HT-29 cells, and human non-small cell lung cancer A549 cells was studied. The SW480 cells were suspended in a 10% FBS/RPMI1640 and then seeded in a 96-well microplate, followed by culturing in 5% CO2 at 37° C. (2000 cells/well). The A549 cells and the HT-29 cells were each suspended in a DMEM medium containing 10% FBS, 100 U/mL penicillin, and 100 μg/mL streptomycin (10% FBS/DMEM) and a DMEM F-12 HAM medium containing 10% FBS, 100 U/mL penicillin, and 100 μg/mL streptomycin (10% FBS/DMEM F12 HAM), and then seeded in 96-well microplates, followed by culturing in 5% CO2 at 37° C. (1000 cells/well). After an overnight culture, the compound of the present invention was added, followed by further culturing for 48 hours (SW480 cells) and 96 hours (A549 cells and HT-29 cells). After culturing, the number of viable cells was counted using TetraColor ONE (Seikagaku Corporation) in accordance with the attached operating procedure. The results were expressed as the concentration of a test compound needed for 50% inhibition of the proliferation of the cells (IC50).

NFκB = experiment: Inhibitory action on the NFκB activity, luciferase assay in SW480/NRE-Luc cells; type: cell-based, human; conditions: for IC50: Homo sapiens, SW480, read-out: NFκB inhibitory activity IC50; for NFκB inhibitory activity IC50: SW480/NRE-Luc cells, compound 1 h then 50 ng/mL TNFα 4 h, luciferase
Text: (§2) The action of the phenanthroindolizidine alkaloid compound of the present invention on the NFκB activity was studied using a luciferase assay. Human colon cancer SW480 cells were transfected with pNFκB-Luc Plasmid (Stratagene), which is a reporter vector in which a five-time tandem repeat of the NFκB responsive element (NRE) is integrated into the upstream of the luciferase gene, using Lipofectamine 2000 (Invitrogen Corporation) in accordance with the attached operating procedure. Subsequently, the cells were cultured in an RPMI1640 medium containing 10% FBS, 100 U/mL penicillin, 100 μg/mL streptomycin, and 0.5 mg/mL G418 to produce SW480 cells having the luciferase gene, the expression of which is regulated by NRE, stably introduced therein (SW480/NRE-Luc cells). Likewise, SW480 cells were transfected with pGL3-Control Vector (Promega Corporation), which is a reporter vector in which the SV40 promoter is integrated into the upstream of the luciferase gene, to produce SW480 cells having the luciferase gene, the expression of which is regulated by the SV40 promoter, stably introduced therein (SW480/SV40-Luc cells). The SW480/NRE-Luc cells or the SW480/SV40-Luc cells were suspended in an RPMI1640 medium containing 10% FBS, 100 U/mL penicillin, and 100 μg/mL streptomycin (10% FBS/RPMI1640), and then seeded in a 96-well microplate, followed by culturing under conditions of 5% CO2 and at 37° C. (5000 cells/well). After an overnight culture, the compound of the present invention was added, followed by culturing for one hour. Further, 50 ng/mL TNFα (Sigma-Aldrich Corporation) was added, followed by culturing for four hours. Subsequently, a Steady-Glo Luciferase Assay reagent (Promega Corporation) was added, and the luminescent intensity was detected by SpectraMax M5e (Molecular Devices, Inc.) to measure the intracellular luciferase activity. It is to be noted that the action of the compound of the present invention on the NFκB activity or the SV40 promoter activity was shown as IC50 values (the concentration of a test compound needed for 50% inhibition of the induction of the luciferase expression).

[2] = test system: human colon cancer HT-29 cells; experiment: Inhibitory action on the proliferation of HT-29 cells; type: cell-based; conditions: 96 hours, TetraColor ONE; for IC50: Homo sapiens, HT-29
Procedure: as §1

SV40 promoter = SV40 promoter activity, luciferase assay in SW480/SV40-Luc cells; type: cell-based, human; conditions: for IC50: Homo sapiens, SW480, read-out: SV40 promoter inhibitory activity IC50; for SV40 promoter inhibitory activity IC50: SW480/SV40-Luc cells, luciferase
Text: as §2

[3] = test system: human colon cancer SW480 cells; experiment: Inhibitory action on the proliferation of SW480 cells; type: cell-based; conditions: 48 hours, TetraColor ONE; for IC50: Homo sapiens, SW480
Procedure: as §1

Row | SMILES | IC50 [1] [ng/mL] | IC50 (NFκB) [ng/mL] | IC50 [2] [ng/mL] | IC50 (SV40 promoter) [ng/mL] | IC50 [3] [ng/mL] | A549 proliferation inhibitory action IC50 [1] [ng/mL] | NFκB inhibitory activity IC50 (NFκB) [ng/mL] | HT-29 proliferation inhibitory action IC50 [2] [ng/mL] | SV40 promoter inhibitory activity IC50 (SV40 promoter) [ng/mL] | SW480 proliferation inhibitory action IC50 [3] [ng/mL]
1 | COc1cc2c3c(c4ccc(NC(=O)OCc5ccccc5)cc4c2cc1OC)[C@H](O)[C@@H]1CCCN1C3.Cl [Compound 26, ((12aS,13S)-13-hydroxy-6,7-dimethoxy-9,10,11,12,12a,13-hexahydro-9a-aza-cyclopenta[b]triphenylene-3-yl)-carbamic acid benzyl ester hydrochloride] | 8.8 | 19.9 | 6.7 | > 1000 | 37.3 | – | – | – | – | –
2 | COc1cc2c3c(c4cccc(O)c4c2cc1OC)[C@H](O)[C@@H]1CCCN1C3.Cl [Compound 30, (12aS,13S)-6,7-dimethoxy-9,10,11,12,12a,13-hexahydro-9a-aza-cyclopenta[b]triphenylene-4,13-diol hydrochloride] | 1.2 | 0.017 | 30.5 | > 1000 | 0.45 | – | – | – | – | –
3 | COc1cc2c3c(c4ccc(OC(=O)C(C)(C)C)cc4c2cc1OC)C[C@@H]1CCCN1C3.Cl [Compound 35, 2,2-dimethyl-propionic acid(S)-6,7-dimethoxy-9,10,11,12,12a,13-hexahydro-9a-aza-cyclopenta[b]triphenylene-3-yl ester hydrochloride] | – | – | – | – | – | 1.2 | 2.4 | 3.7 | >1000 | 4.1
4 | CCc1ccc2c3c(c4cc(OC)c(OC)cc4c2c1)CN1CCC[C@H]1C3.Cl [Compound 41, (S)-3-ethyl-6,7-dimethoxy-9,10,11,12,12a,13-hexahydro-9a-aza-cyclopenta[b]triphenylene hydrochloride] | 112 | 281 | 167 | > 10000 | 391 | – | – | – | – | –
5 | COc1cc2c3c(c4ccc(NC(=O)OCC(C)C)cc4c2cc1OC)C[C@@H]1CCCN1C3.Cl [Compound 42, ((S)-6,7-dimethoxy-9,10,11,12,12a,13-hexahydro-9a-aza-cyclopenta[b]triphenylene-3-yl)-carbamic acid isobutyl ester hydrochloride] | 27 | 117 | 19 | > 10000 | 96.3 | – | – | – | – | –
6 | COc1cc2c3c(c4ccc(OC(=O)c5cccnc5)cc4c2cc1OC)C[C@@H]1CCCN1C3.CS(=O)(=O)O [Compound 47, nicotinic acid(S)-6,7-dimethoxy-9,10,11,12,12a,13-hexahydro-9a-aza-cyclopenta[b]triphenylene-3-yl ester methanesulfonate] | – | – | – | – | – | 1.1 | 0.42 | 1.9 | >1000 | 0.38
7 | COc1cc2c3c(c4ccc(OC(=O)C(C)(C)C)cc4c2cc1OC)C[C@@H]1CCCN1C3.CS(=O)(=O)O [Compound 48, 2,2-dimethyl-propionic acid(S)-6,7-dimethoxy-9,10,11,12,12a,13-hexahydro-9a-aza-cyclopenta[b]triphenylene-3-yl ester methanesulfonate] | – | – | – | – | – | 1.2 | 0.40 | 2.0 | >1000 | 0.58
8 | CCCCC(=O)Oc1ccc2c3c(c4cc(OC)c(OC)cc4c2c1)CN1CCC[C@H]1C3.CS(=O)(=O)O [Compound 49, pentanoic acid(S)-6,7-dimethoxy-9,10,11,12,12a,13-hexahydro-9a-aza-cyclopenta[b]triphenylene-3-yl ester methanesulfonate] | – | – | – | – | – | 1.1 | 0.41 | 2.0 | >1000 | 0.62
9 | CCCC(=O)Oc1ccc2c3c(c4cc(OC)c(OC)cc4c2c1)CN1CCC[C@H]1C3.CS(=O)(=O)O [Compound 50, butyric acid(S)-6,7-dimethoxy-9,10,11,12,12a,13-hexahydro-9a-aza-cyclopenta[b]triphenylene-3-yl ester methanesulfonate] | – | – | – | – | – | 0.86 | 0.34 | 1.5 | >100 | 0.54
10 | CCC(=O)Oc1ccc2c3c(c4cc(OC)c(OC)cc4c2c1)CN1CCC[C@H]1C3.CS(=O)(=O)O [Compound 51, propionic acid(S)-6,7-dimethoxy-9,10,11,12,12a,13-hexahydro-9a-aza-cyclopenta[b]triphenylene-3-yl ester methanesulfonate] | – | – | – | – | – | 0.78 | 0.80 | 1.6 | >100 | 1.1
11 | COc1cc2c3c(c4ccc(OC(=O)c5ccco5)cc4c2cc1OC)C[C@@H]1CCCN1C3.CS(=O)(=O)O [Compound 52, furan-2-carboxylic acid(S)-6,7-dimethoxy-9,10,11,12,12a,13-hexahydro-9a-aza-cyclopenta[b]triphenylene-3-yl ester methanesulfonate] | – | – | – | – | – | 1.3 | 0.61 | 2.0 | >1000 | 0.51
12 | COc1cc2c3c(c4ccccc4c2cc1OC)C[C@@H]1CCCN1C3.CS(=O)(=O)O [Compound 53, (S)-6,7-dimethoxy-9,10,11,12,12a,13-hexahydro-9a-aza-cyclopenta[b]triphenylene methanesulfonate] | 28.9 | 19.1 | 58.5 | > 10000 | 32.9 | – | – | – | – | –
13 | COc1cc2c3c(c4ccc(N)cc4c2cc1OC)C[C@@H]1CCCN1C3.CS(=O)(=O)O [Compound 54, (S)-3-amino-6,7-dimethoxy-9,10,11,12,12a,13-hexahydro-9a-aza-cyclopenta[b]triphenylene methanesulfonate] | 2.8 | 2 | 4.15 | > 10 | 3.9 | – | – | – | – | –
14 | COc1cc2c3c(c4ccc(NC(=O)OCC(C)C)cc4c2cc1OC)C[C@@H]1CCCN1C3.CS(=O)(=O)O [Compound 55, ((S)-6,7-dimethoxy-9,10,11,12,12a,13-hexahydro-9a-aza-cyclopenta[b]triphenylene-3-yl)-carbamic acid isobutyl ester methanesulfonate] | 33.7 | 0.5 | 46 | > 10000 | 0.76 | – | – | – | – | –
15 | COc1cc2c3c(c4ccc(N5CCCC5)cc4c2cc1OC)C[C@@H]1CCCN1C3.CS(=O)(=O)O [Compound 57, (S)-6,7-dimethoxy-3-pyrrolidine-9,10,11,12,12a,13-hexahydro-9a-aza-cyclopenta[b]triphenylene methanesulfonate] | – | – | – | – | – | 61.1 | 0.67 | 74.1 | >10000 | 1.0
